Laboratory results as given in patent US20230159469A1, “NOVEL PHTHALAZINE DERIVATIVE HAVING ECTONUCLOEOTIDE PYROPHOSPHATASE/PHOSPHODIESTE RASE INHIBITORY ACTIVITY, AND USE THEREOF” (TXINNO BIOSCIENCE INC., priority 2020, published 2023).
pIC50: −log10 of the molar value. Where a name gives a salt, the structure may show the parent alone.

molecular target: T1, human recombinant ENPP1 (Homo sapiens, UniProt P22413); test: ENPP1 enzyme assay with cGAMP substrate (AMP-Glo luminescence); type: biochemical; conditions: human recombinant ENPP1 3 ng/reaction, cGAMP 5 μM, 37° C. 90 minutes, read-out: Enzymatic activity (ENPP1 IC50)
T1 construct: purchased R & D systems
T1 sequence (P22413 1-925): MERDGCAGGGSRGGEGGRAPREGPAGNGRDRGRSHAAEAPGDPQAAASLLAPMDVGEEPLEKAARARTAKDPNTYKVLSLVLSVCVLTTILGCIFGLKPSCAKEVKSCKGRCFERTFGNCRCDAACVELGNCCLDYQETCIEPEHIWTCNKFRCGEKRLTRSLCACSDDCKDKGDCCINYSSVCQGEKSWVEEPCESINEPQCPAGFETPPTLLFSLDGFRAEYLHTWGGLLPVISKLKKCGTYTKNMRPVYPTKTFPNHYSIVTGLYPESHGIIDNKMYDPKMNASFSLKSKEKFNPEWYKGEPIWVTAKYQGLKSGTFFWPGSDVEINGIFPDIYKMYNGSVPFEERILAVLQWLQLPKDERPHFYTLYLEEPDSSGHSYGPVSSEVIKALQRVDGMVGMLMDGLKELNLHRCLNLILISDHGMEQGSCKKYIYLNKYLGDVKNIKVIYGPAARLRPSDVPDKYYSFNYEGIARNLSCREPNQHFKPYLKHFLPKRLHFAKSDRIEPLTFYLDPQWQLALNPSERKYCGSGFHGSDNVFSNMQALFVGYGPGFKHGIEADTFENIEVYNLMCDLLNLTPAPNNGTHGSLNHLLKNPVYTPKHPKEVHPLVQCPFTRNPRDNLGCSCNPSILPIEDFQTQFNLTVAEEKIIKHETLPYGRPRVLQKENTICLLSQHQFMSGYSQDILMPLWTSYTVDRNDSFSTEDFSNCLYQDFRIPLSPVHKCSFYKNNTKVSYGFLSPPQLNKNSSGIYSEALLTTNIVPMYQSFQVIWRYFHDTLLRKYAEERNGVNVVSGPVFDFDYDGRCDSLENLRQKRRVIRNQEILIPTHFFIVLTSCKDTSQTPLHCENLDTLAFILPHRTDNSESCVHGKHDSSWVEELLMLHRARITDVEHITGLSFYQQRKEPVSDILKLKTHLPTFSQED
Method in brief: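 Human ENPP1 hydrolysis of 5 μM cGAMP was run for 90 min at 37° C in 50 mM Tris pH 8.5, 250 mM NaCl, 0.5 mM CaCl2, 1 μM ZnCl2, 5% glycerol, 1% DMSO. AMP product was quantified by AMP-Glo luminescence; IC50 came from 3-parameter fits of % residual activity, averaged over at least two runs.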

Row | SMILES | pIC50
1 | COc1cc2c(Nc3cccc(NS(N)(=O)=O)c3)nn(C)c(=O)c2cc1OC [Compound No. 141, N-(3-(6,7-dimethoxy-3-methyl-4-oxo-3,4-dihydrophthalazin-1-yl)-amino)phenyl)sulfamide hydrochloride] | 5.00 to 6.00
2 | NS(=O)(=O)NCCC1CCN(c2n[nH]c(=O)c3ccccc23)CC1 [Compound No. 142, N-(2-(1-(4-oxo-3,4-dihydrophthalazin-1-yl)piperidin-4-yl)ethyl)sulfamide trifluoroacetic acid] | < 5.00
3 | O=c1[nH]nc(Cc2ccccc2)c2ccccc12 [Compound No. 143, 4-benzylphthalazin-1(2H)-one] | < 5.00
4 | COc1cc2c(Cc3ccccc3)n[nH]c(=O)c2cc1OC [Compound No. 144, 4-benzyl-6,7-dimethoxyphthalazin-1(2H)-one] | < 5.00
5 | COc1cc2c(Cc3cccc(NC(=O)OC(C)(C)C)c3)n[nH]c(=O)c2cc1OC [Compound No. 145, tert-butyl (3-((6,7-dimethoxy-4-oxo-3,4-dihydrophthalazin-1-yl)methyl)phenyl)carbamate] | < 5.00
6 | COc1cc2c(Cc3cccc(NC(=O)OC(C)(C)C)c3)nn(C)c(=O)c2cc1OC [Compound No. 146, tert-butyl (3-((6,7-dimethoxy-3-methyl-4-oxo-3,4-dihydrophthalazin-1-yl)methyl)phenyl)carbamate] | < 5.00
7 | CC(C)(C)OC(=O)Nc1ccc(Cc2n[nH]c(=O)c3ccccc23)cc1 [Compound No. 147, tert-butyl (4-((4-oxo-3,4-dihydrophthalazin-1-yl)methyl)phenyl)carbamate] | < 5.00
8 | Cn1nc(Cc2ccc(NC(=O)OC(C)(C)C)cc2)c2ccccc2c1=O [Compound No. 148, tert-butyl (4-((3-methyl-4-oxo-3,4-dihydrophthalazin-1-yl)methyl)phenyl)carbamate] | < 5.00
9 | COc1cc2c(Cc3ccc(NC(=O)OC(C)(C)C)cc3)n[nH]c(=O)c2cc1OC [Compound No. 149, tert-butyl (4-((6,7-dimethoxy-4-oxo-3,4-dihydrophthalazin-1-yl)methyl)phenyl)carbamate] | < 5.00
10 | COc1cc2c(Cc3ccc(NC(=O)OC(C)(C)C)cc3)nn(C)c(=O)c2cc1OC [Compound No. 150, tert-butyl (4-((6,7-dimethoxy-3-methyl-4-oxo-3,4-dihydrophthalazin-1-yl)methyl)phenyl)carbamate] | < 5.00
11 | CN(C(=O)OC(C)(C)C)c1ccc(Cc2n[nH]c(=O)c3ccccc23)cc1 [Compound No. 151, tert-butyl (4-((4-oxo-3,4-dihydrophthalazin-1-yl)methyl)phenyl) (methyl)carbamate] | < 5.00
12 | COc1cc2c(Cc3ccc(N(C)C(=O)OC(C)(C)C)cc3)n[nH]c(=O)c2cc1OC [Example 152, tert-butyl (4-((6,7-dimethoxy-4-oxo-3,4-dihydrophthalazin-1-yl)methyl)phenyl) (methyl) carbamate] | < 5.00
13 | COc1cc2c(Cc3ccc4c(c3)CCN4C(=O)OC(C)(C)C)nn(C)c(=O)c2cc1OC [Example 155] | < 5.00
14 | COc1cc2c(Cc3cccc(N)c3)n[nH]c(=O)c2cc1OC [Example 156, 4-(3-aminobenzyl)-6,7-dimethoxyphthalazin-1(2H)-one hydrochloride] | < 5.00
15 | COc1cc2c(Cc3cccc(N)c3)nn(C)c(=O)c2cc1OC [Example 157, 4-(3-aminobenzyl)-6,7-dimethoxy-2-methylphthalazin-1(2H)-one hydrochloride] | < 5.00
16 | Nc1ccc(Cc2n[nH]c(=O)c3ccccc23)cc1 [Example 158, 4-(4-aminobenzyl)-phthalazin-1(2H)-one hydrochloride] | < 5.00
17 | Cn1nc(Cc2ccc(N)cc2)c2ccccc2c1=O [Example 159, 4-(4-aminobenzyl)-2-methylphthalazin-1(2H)-one hydrochloride] | < 5.00

Row | SMILES | pIC50
18 | COc1cc2c(Cc3ccc(N)cc3)n[nH]c(=O)c2cc1OC [Example 160, 4-(4-aminobenzyl)-6,7-dimethoxyphthalazin-1(2H)-one hydrochloride] | < 5.00
19 | COc1cc2c(Cc3ccc(N)cc3)nn(C)c(=O)c2cc1OC [Example 161, 4-(4-aminobenzyl)-6,7-dimethoxy-2-methylphthalazin-1(2H)-one hydrochloride] | < 5.00
20 | CNc1ccc(Cc2n[nH]c(=O)c3ccccc23)cc1 [Example 162, 4-(4-(methylamino)benzyl)phthalazin-1(2H)-one hydrochloride] | < 5.00
21 | CNc1ccc(Cc2n[nH]c(=O)c3cc(OC)c(OC)cc23)cc1 [Example 163, 6,7-dimethoxy-4-(4-(methylamino)benzyl)phthalazin-1(2H) -one hydrochloride] | < 5.00
22 | CNc1ccc(Cc2nn(C)c(=O)c3cc(OC)c(OC)cc23)cc1 [Example 164, 6,7-dimethoxy-2-methyl-4-(4-(methylamino)benzyl)phthalazin-1(2H)-one hydrochloride] | < 5.00
23 | COc1cc2c(Cc3ccc4c(c3)CCN4)n[nH]c(=O)c2cc1OC [Example 165, 4-(indolin-5-yl-methyl)-6,7-dimethoxyphthalazin-1(2H)-one hydrochloride] | < 5.00
24 | COc1cc2c(Cc3ccc4c(c3)CCN4)nn(C)c(=O)c2cc1OC [Example 166, 4-(indolin-5-yl-methyl)-6,7-dimethoxy-2-methylphthalazin-1(2H)-one hydrochloride] | < 5.00
25 | COc1cc2c(Cc3cccc(NS(=O)(=O)NC(=O)OC(C)(C)C)c3)n[nH]c(=O)c2cc1OC [Example 167, tert-butyl (N-(3-((6,7-dimethoxy-4-oxo-3,4-dihydrophthalazin-1-yl)methyl)phenyl)sulfamoyl)carbamate] | < 5.00
26 | COc1cc2c(Cc3cccc(NS(=O)(=O)NC(=O)OC(C)(C)C)c3)nn(C)c(=O)c2cc1OC [Example 168, tert-butyl (N-(3-((6,7-dimethoxy-3-methyl-4-oxo-3,4-dihydrophthalazin-1-yl)methyl)phenyl)sulfamoyl)carbamate] | < 5.00
27 | CC(C)(C)OC(=O)NS(=O)(=O)Nc1ccc(Cc2n[nH]c(=O)c3ccccc23)cc1 [Example 169, tert-butyl (N-(4-((4-oxo-3,4-dihydrophthalazin-1-yl)methyl)phenyl)sulfamoyl)carbamate] | 5.00 to 6.00
28 | Cn1nc(Cc2ccc(NS(=O)(=O)NC(=O)OC(C)(C)C)cc2)c2ccccc2c1=O [Example 170, tert-butyl (N-(4-((3-methyl-4-oxo-3,4-dihydrophthalazin-1-yl)methyl)phenyl)sulfamoyl)carbamate] | < 5.00
29 | COc1cc2c(Cc3ccc(NS(=O)(=O)NC(=O)OC(C)(C)C)cc3)n[nH]c(=O)c2cc1OC [Example 171, tert-butyl (N-(4-((6,7-dimethoxy-4-oxo-3,4-dihydrophthalazin-1-yl)methyl)phenyl)sulfamoyl)carbamate] | < 5.00
30 | COc1cc2c(Cc3ccc(NS(=O)(=O)NC(=O)OC(C)(C)C)cc3)nn(C)c(=O)c2cc1OC [Example 172, tert-butyl (N-(4-((6,7-dimethoxy-3-methyl-4-oxo-3,4-dihydrophthalazin-1-yl)methyl)phenyl)sulfamoyl)carbamate] | 5.00 to 6.00
31 | CN(c1ccc(Cc2n[nH]c(=O)c3ccccc23)cc1)S(=O)(=O)NC(=O)OC(C)(C)C [Example 173, tert-butyl N-methyl-N-(4-((4-oxo-3,4-dihydrophthalazin-1-yl)methyl)phenyl)sulfamoyl carbamate] | < 5.00
32 | COc1cc2c(Cc3ccc(N(C)S(=O)(=O)NC(=O)OC(C)(C)C)cc3)n[nH]c(=O)c2cc1OC [Example 174, tert-butyl N-(4-((6,7-dimethoxy-4-oxo-3,4-dihydrophthalazin-1-yl)methyl)phenyl)-N-methylsulfamoyl carbamate] | < 5.00
33 | COc1cc2c(Cc3ccc4c(c3)CCN4S(=O)(=O)NC(=O)OC(C)(C)C)n[nH]c(=O)c2cc1OC [Example 176, tert-butyl (5-((6,7-dimethoxy-4-oxo-3,4-dihydrophthalazin-1-yl)methyl)indolin-1-yl)sulfonyl carbamate] | < 5.00
34 | COc1cc2c(Cc3ccc4c(c3)CCN4S(=O)(=O)NC(=O)OC(C)(C)C)nn(C)c(=O)c2cc1OC [Example 177, tert-butyl (5-((6,7-dimethoxy-3-methyl-4-oxo-3,4-dihydrophthalazin-1-yl)methyl)indolin-1-yl)sulfonyl carbamate] | < 5.00
